Measured values taken from paper PMC10439952, “JT002, a small molecule inhibitor of the NLRP3 inflammasome for the treatment of autoinflammatory disorders” (Scientific Reports, 2023).

Key:
Format in all cases: cell-based
[1] = target: T1, NLRP3 inflammasome assembly (ASC speck) (Mus musculus, UniProt Q8R4B8); assay: Inhibition of ASC speck formation by immunofluorescence in LPS + nigericin treated mouse BMDMs
T1 construct: host or cells: mouse PBMCs; mouse bone-marrow derived macrophages; mouse whole blood (C57BL/6 in the ex vivo study)
T1 sequence (Q8R4B8 whole entry): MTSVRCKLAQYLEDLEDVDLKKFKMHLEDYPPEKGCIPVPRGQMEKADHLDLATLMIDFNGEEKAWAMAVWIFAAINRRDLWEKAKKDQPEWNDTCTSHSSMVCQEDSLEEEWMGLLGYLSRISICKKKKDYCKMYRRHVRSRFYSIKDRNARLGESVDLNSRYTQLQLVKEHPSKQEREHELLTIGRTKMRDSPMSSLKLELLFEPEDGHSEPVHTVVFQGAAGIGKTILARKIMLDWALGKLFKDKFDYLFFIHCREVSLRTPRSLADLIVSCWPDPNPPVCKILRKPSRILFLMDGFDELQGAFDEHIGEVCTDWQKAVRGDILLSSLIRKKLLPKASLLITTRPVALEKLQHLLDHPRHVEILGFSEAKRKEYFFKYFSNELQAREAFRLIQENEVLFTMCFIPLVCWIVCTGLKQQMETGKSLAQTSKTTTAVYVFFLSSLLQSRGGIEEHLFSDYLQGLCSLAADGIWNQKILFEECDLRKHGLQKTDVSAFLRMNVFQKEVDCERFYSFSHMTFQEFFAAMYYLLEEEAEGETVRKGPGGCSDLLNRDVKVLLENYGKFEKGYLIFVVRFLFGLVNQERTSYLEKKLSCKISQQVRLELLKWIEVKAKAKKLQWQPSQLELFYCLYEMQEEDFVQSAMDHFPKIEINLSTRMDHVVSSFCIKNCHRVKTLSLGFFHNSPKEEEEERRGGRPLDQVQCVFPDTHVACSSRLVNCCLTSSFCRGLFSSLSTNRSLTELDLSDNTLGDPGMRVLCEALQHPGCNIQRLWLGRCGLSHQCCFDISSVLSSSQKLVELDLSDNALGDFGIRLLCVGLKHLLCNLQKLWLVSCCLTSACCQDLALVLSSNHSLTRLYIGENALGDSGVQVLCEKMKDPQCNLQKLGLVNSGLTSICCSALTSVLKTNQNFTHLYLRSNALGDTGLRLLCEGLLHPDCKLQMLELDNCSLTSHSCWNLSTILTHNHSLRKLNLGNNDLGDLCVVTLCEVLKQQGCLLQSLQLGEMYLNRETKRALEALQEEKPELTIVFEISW
Experimental: Mouse BMDMs (2.5 × 10^4 cells/well) were plated in Collagen-IV coated 96-well plates. On the day of the assay, cells were washed with serum-free media then primed with 100 ng/mL LPS for 3 h in DMEM/F12 (1:1) containing L-glutamine. JT002 or DMSO was added to each well and incubated at 37 °C for 30 min prior to stimulation with 10 μM nigericin for 1.5 h. Cells were briefly centrifuged, rinsed with PBS, and fixed with 4% formaldehyde in PBS overnight at 4 °C. Cells were blocked and permeabilized in PBS with 10% goat serum, 1% FBS, 0.5% Triton X-100 for 30 min at 37 °C and incubated with ASC antibody (Millipore-Sigma, Cat #04-147) overnight at 4 °C. Cells were incubated with anti-mouse IgG Alexa Fluor-488 for 1 h at 37 °C. Nuclei were stained with Hoechst 33342 in PBS for 5 min and imaged using a CellInsight CX7 High-Content Screening Platform (ThermoFisher) at Phenovista Biosciences (San Diego, CA, USA).

[2] = system: NLRP1 inflammasome; assay: IL-1β production in Nlrp3-/- mouse BMDMs after NLRP1 activation (LPS + L18-MDP); conditions: mBMDMs, concentrations up to 10 µM
[3] = target: NLRP3 inflammasome (Homo sapiens, UniProt Q96P20); assay: Inhibition of IL-1β production in LPS + ATP stimulated (canonical) human whole blood; parameters: host or cells: fresh heparinised human whole blood from healthy volunteers; conditions: read-out: Geo Av IC50, IL-1β
Chain of NLRP3 inflammasome (Q96P20 whole entry): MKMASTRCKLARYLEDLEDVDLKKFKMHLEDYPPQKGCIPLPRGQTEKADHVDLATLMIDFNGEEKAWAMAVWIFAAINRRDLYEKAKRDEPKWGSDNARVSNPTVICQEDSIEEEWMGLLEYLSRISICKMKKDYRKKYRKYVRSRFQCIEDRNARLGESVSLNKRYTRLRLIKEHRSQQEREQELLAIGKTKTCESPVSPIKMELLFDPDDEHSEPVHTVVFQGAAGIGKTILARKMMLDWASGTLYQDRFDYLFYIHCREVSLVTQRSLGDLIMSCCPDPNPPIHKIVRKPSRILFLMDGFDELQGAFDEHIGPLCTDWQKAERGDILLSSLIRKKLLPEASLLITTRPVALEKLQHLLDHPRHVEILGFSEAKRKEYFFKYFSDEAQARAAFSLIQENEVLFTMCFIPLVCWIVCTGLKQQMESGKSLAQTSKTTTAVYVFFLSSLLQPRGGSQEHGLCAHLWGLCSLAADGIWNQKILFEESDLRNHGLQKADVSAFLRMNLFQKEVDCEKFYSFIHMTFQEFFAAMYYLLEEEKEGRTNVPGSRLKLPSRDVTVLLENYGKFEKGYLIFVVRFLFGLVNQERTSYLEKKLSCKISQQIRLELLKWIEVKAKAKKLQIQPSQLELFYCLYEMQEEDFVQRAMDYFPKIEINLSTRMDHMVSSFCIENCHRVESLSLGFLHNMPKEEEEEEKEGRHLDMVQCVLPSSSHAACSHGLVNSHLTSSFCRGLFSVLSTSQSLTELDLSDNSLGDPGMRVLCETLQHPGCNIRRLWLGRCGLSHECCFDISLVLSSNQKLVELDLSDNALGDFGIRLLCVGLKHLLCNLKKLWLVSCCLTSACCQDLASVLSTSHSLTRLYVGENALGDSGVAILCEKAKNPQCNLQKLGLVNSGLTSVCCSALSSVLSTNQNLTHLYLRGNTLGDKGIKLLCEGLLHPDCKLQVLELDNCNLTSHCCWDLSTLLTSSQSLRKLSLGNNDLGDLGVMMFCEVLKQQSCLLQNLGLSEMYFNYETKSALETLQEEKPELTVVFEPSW
Experimental: Inflammasome activation and whole blood assays were essentially carried out as described earlier. Details can be found in the supplementary information section accompanying this publication. A protocol for blood draws from healthy volunteers and use of the blood in preclinical assays was approved by Western Institutional Review Board, Inc (Puyallup, WA, USA). Informed consent was obtained from each donor prior to the first blood draw.
Cell viability was determined by addition of an equal volume of CellTiter-Glo® 2.0 reagent (Promega) to the remaining cells/supernatant in each well. Intracellular Caspase-1 activity was measured using the Caspase-Glo® assay (Promega) according to the manufacturer’s instructions. The biochemical capsase-1 assay was conducted at Reaction Biology Corporation (Malvern, USA). Human IL-1β, IL-1α, and TNFα and mouse IL-1β were measured in cell culture supernatants using homogeneous time resolved fluorescence assay kits (HTRF, Cisbio, Codolet, France). Human IL-18 was measured in cell culture supernatants using an ELISA kit (R&D Systems, Minneapolis, MN, USA). Plasma IL-1β concentrations were determined by Quantikine® ELISA (R&D Systems, Minneapolis, MN). […]
flagellin, prepared in Opt iMEM and combined with Lipofectamine 2000. […]

IC50 ([1]; Mouse BMDM, read-out: Geo Av IC50, ASC specks): 3 nM
ASC speck formation ([1]; mBMDMs, 2 µM JT002 prior to NLRP3 activation): completely prevented ASC speck formation
IC50 [3]: 100 nM
Structure (SMILES): CO[C@@H]1COc2c(S(=O)(=O)NC(=O)Nc3c4c(cc5c3CCC5)CCC4)cnn2C1 [JT002]
inhibition of IL-1β production after NLRP1 activation [2]: no inhibition of IL-1β production
